Data taken from ChEMBL document CHEMBL3046206, “Synthesis of new 4-(2,5-dimethylpyrrol-1-yl)/4-pyrrol-1-yl benzoic acid hydrazide analogs and some derived oxadiazole, triazole and pyrrole ring systems: a novel class of potential antibacterial, antifungal and antitubercular agents” (Med Chem Res, 2013).
Values after ≈ are worked out from the molar mass of the structure shown.

Experiments:
[1] = tested on: Staphylococcus aureus; assay: Antibacterial activity against Staphylococcus aureus after 18 hr by broth microdilution technique; assay type: functional
[2] = tested on: Enterococcus faecalis; assay: Antibacterial activity against Enterococcus faecalis after 18 hr by broth microdilution technique; assay type: functional
[3] = tested on: Bacillus subtilis; assay: Antibacterial activity against Bacillus subtilis after 18 hr by broth microdilution technique; assay type: functional
[4] = tested on: Klebsiella pneumoniae; assay: Antibacterial activity against Klebsiella pneumoniae after 18 hr by broth microdilution technique; assay type: functional
[5] = tested on: Escherichia coli; assay: Antibacterial activity against Escherichia coli after 18 hr by broth microdilution technique; assay type: functional
[6] = tested on: Pseudomonas aeruginosa; assay: Antibacterial activity against Pseudomonas aeruginosa after 18 hr by broth microdilution technique; assay type: functional
[7] = tested on: Saccharomyces cerevisiae; assay: Antifungal activity against Saccharomyces cerevisiae after 18 hr by broth microdilution technique; assay type: functional
[8] = tested on: Candida tropicalis; assay: Antifungal activity against Candida tropicalis after 18 hr by broth microdilution technique; assay type: functional
[9] = tested on: Aspergillus niger; assay: Antifungal activity against Aspergillus niger after 18 hr by broth microdilution technique; assay type: functional
[10] = tested on: Mycobacterium tuberculosis; assay: Antimycobacterial activity against Mycobacterium tuberculosis H37Rv after 21 days by broth dilution method; assay type: functional; conditions: 504 h
[11] = tested on: Vero; assay: Cytotoxicity against Chlorocebus aethiops (African green monkey) Vero cells after 72 hr by MTT assay; assay type: cell-based; conditions: Chlorocebus sabaeus
[12] = tested on: A549; assay: Cytotoxicity against Homo sapiens (human) A549 cells after 72 hr by MTT assay; assay type: cell-based; conditions: A549, 72 h

O=[N+]([O-])c1cccc(-c2nnc(-c3ccc(-n4cccc4)cc3)o2)c1
MIC [1]: 31.2 µg/mL (≈ 94 µM) | MIC [2]: 31.2 µg/mL (≈ 94 µM) | MIC [3]: 8 µg/mL (≈ 24.1 µM) | MIC [4]: > 500 µg/mL | MIC [5]: 8 µg/mL (≈ 24.1 µM) | MIC [6]: 8 µg/mL (≈ 24.1 µM) | MIC [7]: 31.2 µg/mL (≈ 94 µM) | MIC [8]: 31.2 µg/mL (≈ 94 µM) | MIC [9]: 31.2 µg/mL (≈ 94 µM) | MIC [10]: 8 µg/mL (≈ 24.1 µM) | IC50 [11]: 251 µM | IC50 [12]: 256 µM

NNC(=O)c1ccncc1 [ISONIAZID]
MIC [10]: 0.25 µg/mL (≈ 1.82 µM) | IC50 [11]: > 450 µM | IC50 [12]: > 450 µM

CC(=O)N1N=C(c2ccc(-n3c(C)ccc3C)cc2)OC1c1cccc([N+](=O)[O-])c1 (stereo not given)
MIC [1]: 31.2 µg/mL (≈ 77.3 µM) | MIC [2]: 31.2 µg/mL (≈ 77.3 µM) | MIC [3]: 16 µg/mL (≈ 39.6 µM) | MIC [4]: 62.5 µg/mL (≈ 155 µM) | MIC [5]: 62.5 µg/mL (≈ 155 µM) | MIC [6]: 62.5 µg/mL (≈ 155 µM) | MIC [7]: 31.2 µg/mL (≈ 77.3 µM) | MIC [8]: 8 µg/mL (≈ 19.8 µM) | MIC [9]: 8 µg/mL (≈ 19.8 µM) | MIC [10]: 31.2 µg/mL (≈ 77.3 µM) | IC50 [11]: 188 µM | IC50 [12]: 197 µM

c1ccc(-c2nnc(-c3ccc(-n4cccc4)cc3)o2)cc1
MIC [1]: 31.2 µg/mL (≈ 109 µM) | MIC [2]: 31.2 µg/mL (≈ 109 µM) | MIC [3]: 8 µg/mL (≈ 27.8 µM) | MIC [4]: > 500 µg/mL | MIC [5]: 8 µg/mL (≈ 27.8 µM) | MIC [6]: 8 µg/mL (≈ 27.8 µM) | MIC [7]: 31.2 µg/mL (≈ 109 µM) | MIC [8]: 31.2 µg/mL (≈ 109 µM) | MIC [9]: 31.2 µg/mL (≈ 109 µM) | MIC [10]: 8 µg/mL (≈ 27.8 µM) | IC50 [11]: 250 µM | IC50 [12]: 256 µM

O=C(NNC(=O)c1ccc(-n2cccc2)cc1)c1ccc(Br)cc1
MIC [1]: 62.5 µg/mL (≈ 163 µM) | MIC [2]: 31.2 µg/mL (≈ 81.3 µM) | MIC [3]: 16 µg/mL (≈ 41.6 µM) | MIC [4]: > 500 µg/mL | MIC [5]: 16 µg/mL (≈ 41.6 µM) | MIC [6]: 16 µg/mL (≈ 41.6 µM) | MIC [7]: 31.2 µg/mL (≈ 81.3 µM) | MIC [8]: 8 µg/mL (≈ 20.8 µM) | MIC [9]: 16 µg/mL (≈ 41.6 µM) | MIC [10]: 8 µg/mL (≈ 20.8 µM) | IC50 [11]: 186 µM | IC50 [12]: 201 µM

Brc1ccc(-c2nnc(-c3ccc(-n4cccc4)cc3)o2)cc1
MIC [1]: 31.2 µg/mL (≈ 85.3 µM) | MIC [2]: 16 µg/mL (≈ 43.7 µM) | MIC [3]: 4 µg/mL (≈ 10.9 µM) | MIC [4]: > 500 µg/mL | MIC [5]: 4 µg/mL (≈ 10.9 µM) | MIC [6]: 8 µg/mL (≈ 21.8 µM) | MIC [7]: 31.2 µg/mL (≈ 85.3 µM) | MIC [8]: 4 µg/mL (≈ 10.9 µM) | MIC [9]: 8 µg/mL (≈ 21.8 µM) | MIC [10]: 2 µg/mL (≈ 5.46 µM) | IC50 [11]: 260 µM | IC50 [12]: 264 µM

C/C(=N/NC(=O)c1ccc(-n2c(C)ccc2C)cc1)c1ccccc1
MIC [1]: 62.5 µg/mL (≈ 189 µM) | MIC [2]: 31.2 µg/mL (≈ 94.3 µM) | MIC [3]: 16 µg/mL (≈ 48.3 µM) | MIC [4]: 500 µg/mL (≈ 1510 µM) | MIC [5]: 500 µg/mL (≈ 1510 µM) | MIC [6]: 500 µg/mL (≈ 1510 µM) | MIC [7]: 62.5 µg/mL (≈ 189 µM) | MIC [8]: 62.5 µg/mL (≈ 189 µM) | MIC [9]: 62.5 µg/mL (≈ 189 µM) | MIC [10]: 31.2 µg/mL (≈ 94.3 µM)

Clc1ccc(-c2nnc(-c3ccc(-n4cccc4)cc3)o2)cc1
MIC [1]: 31.2 µg/mL (≈ 97.1 µM) | MIC [2]: 16 µg/mL (≈ 49.7 µM) | MIC [3]: 4 µg/mL (≈ 12.4 µM) | MIC [4]: > 500 µg/mL | MIC [5]: 4 µg/mL (≈ 12.4 µM) | MIC [6]: 4 µg/mL (≈ 12.4 µM) | MIC [7]: 8 µg/mL (≈ 24.9 µM) | MIC [8]: 4 µg/mL (≈ 12.4 µM) | MIC [9]: 16 µg/mL (≈ 49.7 µM) | MIC [10]: 2 µg/mL (≈ 6.22 µM) | IC50 [11]: 253 µM | IC50 [12]: 256 µM

CC(=O)N1N=C(c2ccc(-n3c(C)ccc3C)cc2)OC1c1ccccc1[N+](=O)[O-] (stereo not given)
MIC [1]: 31.2 µg/mL (≈ 77.3 µM) | MIC [2]: 31.2 µg/mL (≈ 77.3 µM) | MIC [3]: 16 µg/mL (≈ 39.6 µM) | MIC [4]: 500 µg/mL (≈ 1240 µM) | MIC [5]: 500 µg/mL (≈ 1240 µM) | MIC [6]: 500 µg/mL (≈ 1240 µM) | MIC [7]: 31.2 µg/mL (≈ 77.3 µM) | MIC [8]: 8 µg/mL (≈ 19.8 µM) | MIC [9]: 8 µg/mL (≈ 19.8 µM) | MIC [10]: 31.2 µg/mL (≈ 77.3 µM) | IC50 [11]: 175 µM | IC50 [12]: 182 µM

CC(=O)N1N=C(c2ccc(-n3c(C)ccc3C)cc2)OC1c1ccccc1Cl (stereo not given)
MIC [1]: 16 µg/mL (≈ 40.6 µM) | MIC [2]: 31.2 µg/mL (≈ 79.3 µM) | MIC [3]: 8 µg/mL (≈ 20.3 µM) | MIC [4]: 31.2 µg/mL (≈ 79.3 µM) | MIC [5]: 500 µg/mL (≈ 1270 µM) | MIC [6]: 500 µg/mL (≈ 1270 µM) | MIC [7]: 31.2 µg/mL (≈ 79.3 µM) | MIC [8]: 8 µg/mL (≈ 20.3 µM) | MIC [9]: 16 µg/mL (≈ 40.6 µM) | MIC [10]: 8 µg/mL (≈ 20.3 µM) | IC50 [11]: 201 µM | IC50 [12]: 206 µM

Cc1ccc(C)n1-c1ccc(C(=O)N/N=C/c2c(Cl)cccc2Cl)cc1
MIC [1]: 16 µg/mL (≈ 41.4 µM) | MIC [2]: 16 µg/mL (≈ 41.4 µM) | MIC [3]: 16 µg/mL (≈ 41.4 µM) | MIC [4]: 500 µg/mL (≈ 1290 µM) | MIC [5]: 500 µg/mL (≈ 1290 µM) | MIC [6]: 500 µg/mL (≈ 1290 µM) | MIC [7]: 31.2 µg/mL (≈ 80.9 µM) | MIC [8]: 4 µg/mL (≈ 10.4 µM) | MIC [9]: 4 µg/mL (≈ 10.4 µM) | MIC [10]: 16 µg/mL (≈ 41.4 µM)

Cc1ccc(C)n1-c1ccc(C(=O)N/N=C/c2ccccc2)cc1
MIC [1]: 31.2 µg/mL (≈ 98.5 µM) | MIC [2]: 62.5 µg/mL (≈ 197 µM) | MIC [3]: 31.2 µg/mL (≈ 98.5 µM) | MIC [4]: 62.5 µg/mL (≈ 197 µM) | MIC [5]: 62.5 µg/mL (≈ 197 µM) | MIC [6]: 62.5 µg/mL (≈ 197 µM) | MIC [7]: 62.5 µg/mL (≈ 197 µM) | MIC [8]: 31.2 µg/mL (≈ 98.5 µM) | MIC [9]: 31.2 µg/mL (≈ 98.5 µM) | MIC [10]: 31.2 µg/mL (≈ 98.5 µM)

O=C(NNC(=O)c1ccc(-n2cccc2)cc1)c1ccc(Cl)cc1
MIC [1]: 62.5 µg/mL (≈ 184 µM) | MIC [2]: 31.2 µg/mL (≈ 92 µM) | MIC [3]: 16 µg/mL (≈ 47.1 µM) | MIC [4]: > 500 µg/mL | MIC [5]: 16 µg/mL (≈ 47.1 µM) | MIC [6]: 16 µg/mL (≈ 47.1 µM) | MIC [7]: 31.2 µg/mL (≈ 92 µM) | MIC [8]: 8 µg/mL (≈ 23.5 µM) | MIC [9]: 31.2 µg/mL (≈ 92 µM) | MIC [10]: 8 µg/mL (≈ 23.5 µM) | IC50 [11]: 179 µM | IC50 [12]: 185 µM

CC(=O)N1N=C(c2ccc(-n3c(C)ccc3C)cc2)OC1c1ccccc1 (stereo not given)
MIC [1]: 62.5 µg/mL (≈ 174 µM) | MIC [2]: 62.5 µg/mL (≈ 174 µM) | MIC [3]: 16 µg/mL (≈ 44.5 µM) | MIC [4]: 62.5 µg/mL (≈ 174 µM) | MIC [5]: 500 µg/mL (≈ 1390 µM) | MIC [6]: 500 µg/mL (≈ 1390 µM) | MIC [7]: 62.5 µg/mL (≈ 174 µM) | MIC [8]: 16 µg/mL (≈ 44.5 µM) | MIC [9]: 31.2 µg/mL (≈ 86.9 µM) | MIC [10]: 16 µg/mL (≈ 44.5 µM) | IC50 [11]: 190 µM | IC50 [12]: 198 µM

O=[N+]([O-])c1ccccc1-c1nnc(-c2ccc(-n3cccc3)cc2)o1
MIC [1]: 31.2 µg/mL (≈ 94 µM) | MIC [2]: 16 µg/mL (≈ 48.1 µM) | MIC [3]: 4 µg/mL (≈ 12 µM) | MIC [4]: > 500 µg/mL | MIC [5]: 4 µg/mL (≈ 12 µM) | MIC [6]: 4 µg/mL (≈ 12 µM) | MIC [7]: 31.2 µg/mL (≈ 94 µM) | MIC [8]: 31.2 µg/mL (≈ 94 µM) | MIC [9]: 31.2 µg/mL (≈ 94 µM) | MIC [10]: 2 µg/mL (≈ 6.02 µM) | IC50 [11]: 266 µM | IC50 [12]: 267 µM
